Reference: article PMC4310350 (Drug Design, Development and Therapy, 2015)
Entries after “also recorded” stand apart in the source; their conditions may differ. Like-named read-outs stand apart in the source and are kept apart here. Blank lines part the entries; values can stand above or below the molecule they belong to.

Legend:
OAT3 [1] = molecular target: T1, OAT3 (Homo sapiens, UniProt Q8TCC7); conditions: cited from earlier work
T1 sequence (Q8TCC7 1-542): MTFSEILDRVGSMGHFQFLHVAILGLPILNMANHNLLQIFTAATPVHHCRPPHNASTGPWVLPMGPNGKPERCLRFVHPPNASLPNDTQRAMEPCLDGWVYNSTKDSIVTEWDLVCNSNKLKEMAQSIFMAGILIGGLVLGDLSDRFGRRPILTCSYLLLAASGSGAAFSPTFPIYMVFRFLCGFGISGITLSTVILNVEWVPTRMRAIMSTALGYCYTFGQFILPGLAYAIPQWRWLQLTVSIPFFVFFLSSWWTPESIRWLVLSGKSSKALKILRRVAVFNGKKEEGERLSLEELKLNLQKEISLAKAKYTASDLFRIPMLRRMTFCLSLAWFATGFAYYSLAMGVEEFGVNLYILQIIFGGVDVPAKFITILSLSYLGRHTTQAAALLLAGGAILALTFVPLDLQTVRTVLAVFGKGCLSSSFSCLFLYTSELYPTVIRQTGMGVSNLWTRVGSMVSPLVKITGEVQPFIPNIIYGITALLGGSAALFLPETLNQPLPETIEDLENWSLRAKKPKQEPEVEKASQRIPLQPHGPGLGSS

OAT1 = molecular target: T2, OAT1 (Homo sapiens, UniProt Q4U2R8); conditions: cited from earlier work
T2 sequence (Q4U2R8 1-563): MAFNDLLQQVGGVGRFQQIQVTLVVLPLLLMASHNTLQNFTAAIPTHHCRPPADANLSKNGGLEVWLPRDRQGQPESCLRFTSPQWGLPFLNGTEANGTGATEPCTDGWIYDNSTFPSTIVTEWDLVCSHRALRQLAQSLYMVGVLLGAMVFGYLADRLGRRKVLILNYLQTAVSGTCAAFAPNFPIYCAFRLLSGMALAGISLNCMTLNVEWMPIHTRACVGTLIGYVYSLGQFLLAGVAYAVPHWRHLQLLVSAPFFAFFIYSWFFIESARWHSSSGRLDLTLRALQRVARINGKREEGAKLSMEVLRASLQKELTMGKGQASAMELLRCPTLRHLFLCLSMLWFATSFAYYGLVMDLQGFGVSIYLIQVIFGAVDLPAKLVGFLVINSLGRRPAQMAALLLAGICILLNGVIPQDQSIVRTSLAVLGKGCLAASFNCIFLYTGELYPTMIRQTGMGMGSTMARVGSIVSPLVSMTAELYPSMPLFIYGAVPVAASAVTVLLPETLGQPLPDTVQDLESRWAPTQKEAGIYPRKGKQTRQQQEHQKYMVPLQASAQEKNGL

OATP1B3 = molecular target: T3, OATP1B3 (Homo sapiens, UniProt Q9NPD5); conditions: cited from earlier work
T3 sequence (Q9NPD5 1-702): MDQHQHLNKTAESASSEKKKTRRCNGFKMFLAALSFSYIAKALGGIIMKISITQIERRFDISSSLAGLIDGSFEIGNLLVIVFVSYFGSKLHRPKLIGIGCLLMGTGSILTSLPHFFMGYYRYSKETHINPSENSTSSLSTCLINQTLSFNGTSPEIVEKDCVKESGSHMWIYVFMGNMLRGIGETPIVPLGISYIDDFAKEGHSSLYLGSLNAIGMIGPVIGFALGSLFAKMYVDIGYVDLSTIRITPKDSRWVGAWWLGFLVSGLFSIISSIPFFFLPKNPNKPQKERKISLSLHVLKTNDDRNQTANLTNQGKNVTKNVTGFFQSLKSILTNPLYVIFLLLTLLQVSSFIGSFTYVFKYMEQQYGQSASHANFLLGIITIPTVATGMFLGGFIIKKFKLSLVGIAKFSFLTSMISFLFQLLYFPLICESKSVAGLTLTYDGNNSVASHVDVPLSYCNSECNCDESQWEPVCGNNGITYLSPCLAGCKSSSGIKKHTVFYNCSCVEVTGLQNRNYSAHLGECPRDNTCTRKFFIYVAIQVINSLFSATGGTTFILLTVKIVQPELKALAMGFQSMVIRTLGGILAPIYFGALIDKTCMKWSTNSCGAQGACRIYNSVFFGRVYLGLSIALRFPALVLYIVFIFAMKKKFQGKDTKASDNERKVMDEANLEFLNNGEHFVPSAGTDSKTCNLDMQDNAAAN

OAT3 [2] = molecular target: T1, OAT3; test: in vitro; conditions: HEK293 cells transiently expressing OAT3, probe catalposide 10 μM
OAT3 [3] = molecular target: T1, OAT3; conditions: 10 μM catalposide, HEK293-OAT3
OATP2B1 = conditions: cited from earlier work
[4] = substrate: O=C(O[C@H]1[C@@H]2C=CO[C@@H](O[C@@H]3O[C@H](CO)[C@@H](O)[C@H](O)[C@H]3O)[C@@H]2[C@@]2(CO)O[C@@H]12)c1ccc(O)cc1; test: Uptake in HEK293 cells overexpressing OAT3; format: in vitro ADME; conditions: other: OAT3-mediated uptake, 2–500 μM catalposide, 10 minutes; 37.0 °C

Molecule: O=c1cc(-c2ccccc2)oc2cc(O)c(O)c(O)c12 [Bicalein]
Inhibition of OAT3 transport activity (OAT3 [1]): significantly inhibited
Inhibition of OAT1 transport activity (OAT1): significantly inhibited
Inhibition of OATP1B3 transport activity (OATP1B3): significantly inhibited

inhibition at 10 min, 100 μM (OAT3 [2]): 70.4%
Effect on OAT3-mediated catalposide uptake (words) (OAT3 [3]): decreased to basal levels
Molecule: CN/C(=N/CCSCc1nc[nH]c1C)NC#N [cimetidine]
Effect on OAT3-mediated catalposide uptake (words) (OAT3 [3]; listed as Cimetidine): inhibited OAT3-mediated catalposide transport in a concentration-dependent manner

Molecule: COc1ccc(-c2oc3c(CC=C(C)C)c(O[C@@H]4O[C@H](CO)[C@@H](O)[C@H](O)[C@H]4O)cc(O)c3c(=O)c2O[C@@H]2O[C@@H](C)[C@H](O)[C@@H](O)[C@H]2O)cc1 [icariin]
Inhibition of OATP2B1 activity (OATP2B1): potentially inhibited
Inhibition of OATP1B3 activity (OATP1B3): potentially inhibited

inhibition at 10 min, 10 μM (OAT3 [2]): 84.5%
Molecule: CCCN(CCC)S(=O)(=O)c1ccc(C(=O)O)cc1 [probenecid]
Effect on OAT3-mediated catalposide uptake (words) (OAT3 [3]): decreased to basal levels; also recorded: inhibited OAT3-mediated catalposide transport in a concentration-dependent manner

Molecule: COc1c(O)cc(O)c2c(=O)cc(-c3ccccc3)oc12 [wogonin]
Inhibition of OAT3 transport activity (OAT3 [1]): significantly inhibited
Inhibition of OAT1 transport activity (OAT1): significantly inhibited
Inhibition of OATP1B3 transport activity (OATP1B3): significantly inhibited

B1: OAT3 (Homo sapiens) (protein)
chain: T1 sequence (Q8TCC7 1-542)
Km [4]: 41.5 µM
